Data published in patent US20240316146A1, “METHODS OF REDUCING NEUROPATHY AND NEUROPATHIC SYMPTOMS AND TREATING CANCER” (Bexion Pharmaceuticals Inc., priority 2021, published 2024).
Values joined by “and” are separate entries in the source; they are usually repeats but may differ in a detail not shown here. Equal entries are not always repeated.

Assays:
[1] = test system: mouse oxaliplatin model of chemotherapy-induced neuropathy; assay: Thermal hypersensitivity, cold plate test, Study 2; settings: Group E Oxaliplatin/Pregabalin 30 mg/kg (days 3, 5, 7, 9), N 12
Protocol: (§1) Thermal hypersensitivity: Thermal hypersensitivity was assessed using a dynamic cold plate (Bioseb, France) set at a fixed temperature of 15° C. This method allows analysis of more integrated behaviors rather than reflex behaviors, e.g., the tail immersion test. In animal studies, thermal sensitivity is mostly evaluated based on nociceptive reaction latencies in response to a given thermal aversive stimulus. In this classical test, the temperature of the plate is fixed and remains constant: the latency to the first paw licking, jumps or withdrawal is taken as an index of nociceptive threshold. […] The results of the study are shown in Table 5 (raw data) below, Table 6 (summary) below, FIG. 4, and FIG. 5.
(§2) 60 adult male C57/BL6 mice (Charles River), 6-7 weeks of age, were housed in groups of 5 in Perspex cages, in a controlled environment of constant temperature and humidity (temperature: 21±1° C., light: dark cycle of 12:12 hours), with food and water available ad libitum. Animals were allowed to recover from transportation for at least one week before commencing experiments.
Thermal hypersensitivity: The same apparatus and protocol were used as for Study 1. The results of Study 2 are shown in Table 11 (raw data), Table 12 (summary), FIG. 8, and FIG. 9.

[2] = test system: mouse oxaliplatin model of chemotherapy-induced neuropathy; assay: Static mechanical (tactile) allodynia, von Frey filaments, Study 1; format: in vivo
Protocol: as §2
(§3) Static mechanical tactile allodynia: Static mechanical (tactile) allodynia was assessed by measurement of withdrawal threshold using calibrated (force; g) von-Frey monofilaments (Touch-Test Sensory Evaluator; Scientific Marketing Associates) applied to the plantar surface of the left hind-paw. The animals were placed in individual Perspex boxes on a raised metal mesh for 30-40 min before the test to habituate. A series of graduated von Frey hairs (0.07, 0.16, 0.4, 0.6 and 1 g) were applied in sequence with a protocol of 1 sec on 1 sec off repeated 10 times. Each hair was applied perpendicularly to the center of the ventral surface of the paw until it bent slightly. The force applied to the hind-paw of the animal to induce 5 responses out of 10 trials was recorded as paw withdrawal threshold (PWT) 50%.
(§4) Warm vials of BQX-350 were brought to room temperature and reconstituted with 4 mL water for injection via syringe. The vials were gently agitated and/or vortexed for 15-20 sec and allowed to sit at room temp for 5 mins. The rehydrated solution contained 2.2 mg/mL SapC (8.8 mg SapC per vial). About […] of the formulation was injected to achieve a target dose of 20 mg/kg in each mouse. Pregabalin was reconstituted in water and injected to achieve a target dose of 30 mg/kg in each mouse.
(§5) A two-way repeated measures ANOVA with ‘treatment’ as a between subjects effect, and ‘day’ as a within subjects effect was used (using GraphPad Prism version 9.0 for Windows, GraphPad Software, San Diego California USA), followed by Dunnett's multi comparisons test. Data is presented as mean±SEM.

[3] = test system: mouse oxaliplatin model of chemotherapy-induced neuropathy; assay: Static mechanical (tactile) allodynia, von Frey filaments, Study 2; format: in vivo; settings: for PWT 50% (left hind paw Paw Withdrawal Threshold 50%): Group E Oxaliplatin/Pregabalin 30 mg/kg (days 3, 5, 7, 9), N 12; for Individual Paw Withdrawal Threshold 50% (von Frey filaments): Study 2, oxaliplatin 10 mg/kg IP day 0 (+vehicle, BXQ-350 2 mg/kg IP or pregabalin 30 mg/kg IP), individual mice
Protocol: as §3, §2
Static mechanical tactile allodynia: The same apparatus and protocol were used as for Study 1.

Body weights, Study 2 = format: in vivo, mouse; settings: Group E Oxaliplatin/Pregabalin, individual mice
Excerpt: Body Weights: The mice were weighed daily starting 1 day prior to treatment through day 9.

[4] = test system: mouse oxaliplatin model of chemotherapy-induced neuropathy; assay: Thermal hypersensitivity, cold plate test 15° C., Study 1; format: in vivo
Protocol: as §2, §1, §4, §5

[5] = oxaliplatin 10 mg/kg IP day 0 (+vehicle, BXQ-350 20 mg/kg IP or pregabalin 30 mg/kg IP), Baseline, individual mice
[6] = oxaliplatin 10 mg/kg IP day 0 (+vehicle, BXQ-350 20 mg/kg IP or pregabalin 30 mg/kg IP), Day 3, individual mice
[7] = oxaliplatin 10 mg/kg IP day 0 (+vehicle, BXQ-350 20 mg/kg IP or pregabalin 30 mg/kg IP), group mean
[8] = oxaliplatin treated animals, day 3 to day 9, BXQ-350 20 mg/kg, pregabalin 30 mg/kg 2 hours before assessment
[9] = cold plate 15° C., oxaliplatin 10 mg/kg IP day 0 (+vehicle, BXQ-350 20 mg/kg IP or pregabalin 30 mg/kg IP), group mean

In the case of `CC(C)C[C@H](CN)CC(=O)O` [Pregabalin], the “Latency to withdrawal behaviour in the cold plate test (15° C.)” value (“Latency to withdrawal behaviour” for short) ([1]; D3, mean (SEM)) was “***77.083 + s”, the “Latency to withdrawal behaviour” value ([1]; D5, mean (SEM)) was 31.188 + s and the “Latency to withdrawal behaviour” value ([1]; D7, mean (SEM)) was “*42.792 + s”. For the same compound, the “Latency to withdrawal behaviour” value ([1]; D9, mean (SEM)) was 42.063 + s, the “Latency to withdrawal behaviour” value ([1]; D −1, mean (SEM)) was 43.175 + s and the “Latency to withdrawal behaviour” value ([1]; D −2, mean (SEM)) was 44.725 + s. For the same compound, the “Latency to withdrawal behaviour” value ([1]; D −3, mean (SEM)) was 43.908 + s, the “Individual Paw Withdrawal Threshold 50% (von Frey filaments)” value [2, 5] was 0.8 g (4×) and 0.6 g (2×) and 1.0 g (2×) and 0.4 g (2×) and 0.7 g and 0.5 g and the “Individual Paw Withdrawal Threshold 50% (von Frey filaments)” value [2, 6] was 1.0 g (3×) and 0.6 g. The “PWT 50% (g) Baseline” value [2, 7] was 0.698 g, the “PWT 50% (g) D3” value [2, 7] was “*0.733 g” and the “PWT 50% (g) D5” value [2, 7] was “***0.800 g”. For the same compound, the “PWT 50% (g) D7” value [2, 7] was “**0.733 g”, the “PWT 50% (g) D9” value [2, 7] was “****0.883 g” and the “mechanical allodynia (in words)” value [2, 8] was “reduced mechanical allodynia”. For the same compound, the “PWT 50% (left hind paw Paw Withdrawal Threshold 50%)” value ([3]; D3, mean (SEM)) was “****0.933 g”, the “PWT 50% (left hind paw Paw Withdrawal Threshold 50%)” value ([3]; D5, mean (SEM)) was “****0.833 g” and the “PWT 50% (left hind paw Paw Withdrawal Threshold 50%)” value ([3]; D7, mean (SEM)) was “****0.817 g”. For the same compound, the “PWT 50% (left hind paw Paw Withdrawal Threshold 50%)” value ([3]; D9, mean (SEM)) was “****0.967 g”, the “PWT 50% (left hind paw Paw Withdrawal Threshold 50%)” value ([3]; D −1, mean (SEM)) was 0.697 g and the “PWT 50% (left hind paw Paw Withdrawal Threshold 50%)” value ([3]; D −2, mean (SEM)) was 0.600 g. For the same compound, the “PWT 50% (left hind paw Paw Withdrawal Threshold 50%)” value ([3]; D −3, mean (SEM)) was 0.633 g, the “Individual Paw Withdrawal Threshold 50% (von Frey filaments)” value ([3]; D 3) was 1.0 g (10×) and 0.6 g (2×) and the “Individual Paw Withdrawal Threshold 50% (von Frey filaments)” value ([3]; D 5) was 1.0 g (7×) and 0.6 g (5×). The “Individual Paw Withdrawal Threshold 50% (von Frey filaments)” value ([3]; D 7) was 1.0 g (7×) and 0.6 g (4×) and 0.4 g, the “Individual Paw Withdrawal Threshold 50% (von Frey filaments)” value ([3]; D 9) was 1.0 g (11×) and 0.6 g and the “Individual Paw Withdrawal Threshold 50% (von Frey filaments)” value ([3]; D −1) was 1.0 g (5×) and 0.6 g (4×) and 0.4 g (2×) and 0.2 g. The “Individual Paw Withdrawal Threshold 50% (von Frey filaments)” value ([3]; D −2) was 0.4 g (2×) and 0.6 g (9×) and 1.0 g, the “Individual Paw Withdrawal Threshold 50% (von Frey filaments)” value ([3]; D −3) was 0.6 g (8×) and 1.0 g (2×) and 0.4 g (2×) and the Individual body weights (Body weights, Study 2; D 0) was 21.9 g and 23.6 g (2×) and 28.1 g and 23.7 g and 25.7 g (2×) and 24.9 g and 21.8 g and 26.2 g and 23.4 g and 25.1 g. The Individual body weights (Body weights, Study 2; D 1) was 21.6 g and 23.0 g and 26.8 g and 22.7 g and 25.2 g and 25.1 g and 23.1 g and 24.5 g and 23.6 g and 24.8 g and 22.6 g and 24.4 g, the Individual body weights (Body weights, Study 2; D 2) was 21.8 g and 23.1 g and 27.0 g and 22.7 g and 25.1 g and 25.4 g and 23.8 g and 23.6 g and 23.4 g and 25.0 g and 22.8 g and 24.3 g and the Individual body weights (Body weights, Study 2; D 3) was 21.8 g and 23.0 g and 26.6 g and 22.6 g and 24.7 g and 25.5 g and 23.4 g and 22.4 g and 22.9 g and 24.8 g and 22.8 g and 24.0 g. The Individual body weights (Body weights, Study 2; D 4) was 21.8 g and 23.0 g and 27.0 g and 22.3 g and 25.0 g and 24.8 g and 23.4 g and 23.5 g and 23.7 g and 24.9 g and 23.1 g and 24.0 g, the Individual body weights (Body weights, Study 2; D 5) was 21.4 g and 24.0 g and 27.6 g and 22.9 g and the Individual body weights (Body weights, Study 2; D −1) was 21.9 g and 23.7 g and 27.9 g and 23.2 g (2×) and 23.4 g and 25.3 g and 23.3 g and 24.5 g and 24.2 g and 25.7 g and 24.8 g. The Individual body weights (Body weights, Study 2; D −2) was 21.9 g and 23.1 g and 27.6 g and 22.7 g and 25.6 g and 25.9 g and 23.3 g and 24.6 g and 23.8 g and 25.4 g and 22.8 g and 24.4 g, the Individual body weights (Body weights, Study 2; D −3) was 22.0 g and 23.0 g (4×) and 28.0 g and 26.0 g (3×) and 25.0 g (2×) and 24.0 g and the “Latency (s) Baseline” value [4, 9] was 53.629 s. The “Latency (s) D 3” value [4, 9] was 49.400 s, the “Latency (s) D 5” value [4, 9] was 50.000 s and the “Latency (s) D 7” value [4, 9] was 47.183 s. For the same compound, the “Latency (s) D 9” value [4, 9] was 59.300 s, the “Individual latency to displaying withdrawal behaviour in the cold plate test” value (“Individual latency” below) [4, 5] was 52.9 s and 74.9 s and 74.7 s and 57.3 s and 48.6 s and 40.2 s and 57.5 s and 67.5 s and 38.5 s and 44.8 s and 41.3 s and 45.6 s and the “Individual latency” value [4, 6] was 56.7 s and 52.4 s and 44.4 s and 62.3 s and 57.6 s and 46.9 s and 63.6 s and 40.8 s and 58.2 s and 36.5 s and 52.5 s and 20.9 s. For the same compound, the “Individual latency” value ([4]; oxaliplatin 10 mg/kg IP day 0 (+vehicle, BXQ-350 20 mg/kg IP or pregabalin 30 mg/kg IP), Day 5, individual mice) was 22.2 s and 43.5 s and 91.7 s and 73.6 s and 41.5 s and 39.3 s and 61.3 s and 40.1 s and 30.1 s and 42.7 s and 45.2 s and 68.8 s, the “Individual latency” value ([4]; oxaliplatin 10 mg/kg IP day 0 (+vehicle, BXQ-350 20 mg/kg IP or pregabalin 30 mg/kg IP), Day 7, individual mice) was 60.2 s and 40.3 s and 72.5 s and 98.2 s and 55.5 s and 29.3 s and 32.1 s and 35.2 s and 35.8 s and 32.5 s and 31.4 s and 43.2 s and the “Individual latency” value ([4]; oxaliplatin 10 mg/kg IP day 0 (+vehicle, BXQ-350 20 mg/kg IP or pregabalin 30 mg/kg IP), Day 9, individual mice) was 37.8 s and 71.7 s and 75.8 s and 54.0 s and 72.7 s and 34.6 s and 84.7 s and 71.5 s and 74.9 s and 42.7 s and 38.9 s and 52.3 s. For the same compound, the “thermal (cold) sensitivity, cold plate test (in words)” value [4, 8] was “reduced thermal sensitivity”.
